Measurements as given in patent US5270304A, “Therapeutic 2-alkynyl adenosine agent for ischemic diseases of the heart or brain” (priority 1988, dated 1993).

Legend:
[1] = tested on: platelet aggregation; assay: Platelet aggregation inhibitory effect (ADP-induced aggregation of washed platelets); type: cell-based, Nippon white rabbits; settings: Oryctolagus cuniculus, washed rabbit platelets, 10 μM adenosine 5'-diphosphate, drug added 3 min before
Procedure: Male Nippon white rabbits weighing 2.0 to 2.5 kg were used. […] Next, centrifugation was carried out at 140×g for 15 minutes, and the supernatant (platelet-enriched plasma: PRP) was collected. The PRP was centrifuged at 1300×g for 7 minutes. The platelet pellets obtained were washed with a HEPES buffer for platelet washing (pH 6.5) and centrifuged at 1300×g for 7 minutes. […] For assaying platelet aggregation ability, an aggregometer was used, and 10 μl of a test drug was added to 380 μl of the platelet suspension. Three minutes later, 10 μl of a platelet aggregating substance (10 μM adenosine 5'-diphosphate at a final concentration) was added thereto to induce aggregation. […]

[2] = tested on: coronary artery; assay: Coronary artery blood flow increasing effect; type: in vivo, mongrel dogs; settings: Canis lupus familiaris; anesthetized dogs, intraarterial into coronary artery; 100% = reactive hyperemia after 15 s occlusion
Procedure: Adult mongrel dogs weighing 9 to 15 kg were anesthetized with pentobarbital sodium, and the chest of each was opened under artificial respiration. After pericardium excision, the left anterior descending coronary artery was peeled off from the surrounding tissues, a probe for blood flow measurement was set under heparin sodium treatment, and the coronary blood flow was measured by the use of an electromagnetic blood flow meter.
The test drug was injected intraarterially into the coronary artery.

[3] = tested on: vertebral artery; assay: Vertebral artery blood flow increasing effect; type: in vivo, mongrel dogs; settings: Canis lupus familiaris; anesthetized dogs, intraarterial into vertebral artery; 100% = increase by 100 μg/kg papaverine hydrochloride
Procedure: The chests of female and male adult mongrel dogs weighing 8 to 13 kg, under anesthesia by intravenous administration of pentobarbital sodium, were opened under artificial respiration along the median line to expose the left vertebral artery.
The test drug was injected intraarterially into the vertebral artery.

[4] = tested on: atrioventricular conduction; assay: Effect on atrioventricular conduction (atrioventricular block appearance ratio); type: in vivo, guinea pigs; settings: for Atrioventricular Block Appearance Ratio (Number of Animals Showing Appearance/Number of Animals Used): guinea pigs, second degree block, after intravenous 300 μg/kg
Procedure: Each of male guinea pigs weighing 360 to 600 g, after being anesthetized by intraperitoneal administration of 1.4 g/kg of urethane, was fixed on the back, and the trachea was cut open for ensuring airway, a polyethylene tube being inserted thereinto. The blood pressure was measured through a carrier amplifier by connecting the cannula inserted into the left common carotid artery to a pressure transducer. The electrocardiogram was recorded by means of a bioelectric amplifier according to the second induction method, and the PQ interval was measured from the electrocardiogram. The test drug was administered through the left femoral vein, and the presence or absence of appearance of atrioventricular block is represented by the appearance ratio of the second degree of atrioventricular block (number of animals showing appearance/number of animals used) by the test drug administration.

[5] = tested on: coronary artery / renal artery; assay: Safety coefficient (margin of safety from renal blood flow reduction and coronary artery blood flow increase); parameters: species or system mongrel dogs
Source text: As described above, the 2-alkynyladenosine, which is the active ingredient of the drug of the present invention, has a remarkable platelet aggregation inhibitory effect, blood flow increasing effect of various blood vessels (coronary artery and vertebral artery) and brain protecting effect in combination. […] To describe in more detail, the 2-alkynyladenosine, which is the active ingredient of the present drug, has an extremely high ratio of the primary effects such as platelet aggregation inhibitory effect, blood flow increasing effect of various blood vessels, and brain protecting effect to the side-effects such as atrioventricular block appearance ratio and renal blood flow reduction effect, that is, the 2-alkynyladenosine has an extremely broad margin of safety as compared to the prior compounds. For example, the margins of safety (coefficients) of the 2-alkynyladenosine calculated on the basis of the results in TABLE 2 and TABLE 4 by taking an example of coronary artery blood flow increasing effect as the primary effect and renal blood flow reduction effect as the side-effect are as shown below in TABLE 5. From TABLE 5, it can be understood that the 2-alkynyladenosine is a compound having a broader margin of safety as compared with adenosine.

[6] = Effect on renal blood flow (renal blood flow reduction effect); settings: dog, in vivo
Procedure: (§2) Female and male adult mongrel dogs weighing 10 to 15 kg were used. After each dog was anesthetized by intravenous administration of 30 mg/kg of pentobarbital sodium, it was fixed on the back, and the left lower abdominal portion was cut open under artificial respiration to expose the left renal artery. Under heparin sodium treatment, a polyethylene cannula was inserted into the renal artery, and at the other end of the cannula was set a probe for blood flow measurement. Self-perfusion was effected by means of a tube for blood perfusion led from the left femoral artery and connected to the probe, and the renal artery blood flow was measured by means of an electromagnetic blood flow meter.
(§3) The test drug was injected intraarterially into the renal artery.

[7] = tested on: ICR mice; assay: Brain protecting effect: normobaric hypoxia method; type: in vivo; settings: 30 min before 96% N2/4% O2, (±S.E.), control 126.8 ±10.7
Procedure: When the brain falls into hypoxia by cerebral circulatory disorder, its function will be rapidly and irreversibly lost. Accordingly, the pharmacological activities of the drugs were evaluated with the extension time relative to the survival time of the test animals under hypoxia or anoxia induced by changing gas phase components or by a drug.
Evaluation of the pharmacological activity by the normobaric hypoxia method was conducted by following the method of Yasuda et al. (Arch. Int. Pharmacodyn, 233, 136-144 (1978)) as described below.
Animals used were 8 to 11 male ICR mice of 7 weeks age (Clea Japan) per group.
The mice were placed in a desiccator made of glass, and hypoxia was induced by passing a gas mixture of 96% N2 and 4% O2 at a flow rate of 5 liters/min. The time after the passing of the gas into the desiccator to the respiration arrest of each mouse was measured and defined as the survival time.
The test drug was administered intraperitoneally 30 minutes before the initiation of gas passing. The average survival times for the control group and the group to which the test drug was administered were calculated.
The test drug was suspended in a physiological saline containing 0.5% CMC (carboxymethyl cellulose), and the dosage was 0.1 ml per 10 g of body weight. To the mice of the control group was administered 0.5% of the CMC physiological saline in the same manner. The statistical analysis was conducted according to the student's t-test.

[8] = tested on: ICR mice; assay: Brain protecting effect: potassium cyanide (KCN)-induced anoxia method; type: in vivo; settings: 30 min before 2.5 mg/kg KCN, (±S.E.), * P < 0.05
[9] = in vivo; settings: dog
Procedure: as §2, §3

[10] = Acute toxicity; settings: mouse, in vivo; mice, oral administration, estimated
Procedure: (§1) By the use of Slc:ICR mice (7 to 8 weeks old), the acute toxicity tests of Compound 4 (n=5) and Compound 12 (n=13) were conducted.

[11] = tested on: Slc:ICR mice; assay: Acute toxicity; settings: mouse, in vivo, po, 1000 mg/kg
Procedure: as §1

Nc1ncnc2c1ncn2[C@@H]1O[C@H](CO)[C@@H](O)[C@H]1O [Adenosine]
IC50 [1]: 3200 nM
ED50 [2]: 0.0001 mg/kg
ED50 [3]: 0.00052 mg/kg
Atrioventricular Block Appearance Ratio (Number of Animals Showing Appearance/Number of Animals Used) [4]: 6/6
Safety Coefficient ([5]; from TABLE 2 coronary artery blood flow increasing effect and TABLE 4 renal blood flow reduction effect): 2
ED50 [6]: 0.0002 mg/kg

CCCCC#Cc1nc(N)c2ncn([C@@H]3O[C@H](CO)[C@@H](O)[C@H]3O)c2n1 [Compound 2, 2-hexynyladenosine]
IC50 [1]: 61 nM
ED50 [3]: 0.00014 mg/kg
Average Survival Time, Normobaric Hypoxia Method ([7]; 0.1 mg/kg i.p.): 171.9 (±22.1) sec.
Average Survival Time, Normobaric Hypoxia Method ([7]; 0.3 mg/kg i.p.): 169.2 (±23.5) sec.
Average Survival Time, Normobaric Hypoxia Method ([7]; 1.0 mg/kg i.p., ** P < 0.01): 217.3 (±26.2) sec.
Average Survival Time, Potassium Cyanide Induced Anoxia Method ([8]; 1.0 mg/kg i.p., control (1) 39.8 (±2.4)): 50.05 (±3.8) sec.
atrioventricular block appearance ratio compared with adenosine ([4]; 300 μg/kg intravenous): same atrioventricular block appearance ratio as that of adenosine
Atrioventricular Block Appearance Ratio (Number of Animals Showing Appearance/Number of Animals Used) [4]: 6/6
Safety Coefficient ([5]; dog, in vivo): 75
ED50 [9]: 0.00015 mg/kg

CCCCCCC#Cc1nc(N)c2ncn([C@@H]3O[C@H](CO)[C@@H](O)[C@H]3O)c2n1 [Compound 4, 2-octynyladenosine]
IC50 [1]: 140 nM
ED50 [3]: 0.0004 mg/kg
Average Survival Time, Normobaric Hypoxia Method ([7]; 0.3 mg/kg i.p.): 128.7 (±4.8) sec.
Average Survival Time, Normobaric Hypoxia Method ([7]; 1.0 mg/kg i.p., ** P < 0.01): 222.9 (±25.9) sec.
Average Survival Time, Normobaric Hypoxia Method ([7]; 3.0 mg/kg i.p., ** P < 0.01): 230.6 (±26.7) sec.
Atrioventricular Block Appearance Ratio (Number of Animals Showing Appearance/Number of Animals Used) [4]: 1/6
LD50 [10]: ≥ 1000 mg/kg
lethal cases [11]: no lethal case was recognized
Safety Coefficient ([5]; dog, in vivo): > 375
ED50 [9]: > 0.003 mg/kg

CCCCCCCC#Cc1nc(N)c2ncn([C@@H]3O[C@H](CO)[C@@H](O)[C@H]3O)c2n1 [Compound 5]
IC50 [1]: 210 nM
ED50 [3]: 0.0012 mg/kg
Atrioventricular Block Appearance Ratio (Number of Animals Showing Appearance/Number of Animals Used) [4]: 0/6
Safety Coefficient ([5]; dog, in vivo): > 40
ED50 [9]: > 0.003 mg/kg

CCCCCCCCC#Cc1nc(N)c2ncn([C@@H]3O[C@H](CO)[C@@H](O)[C@H]3O)c2n1 [Compound 6]
IC50 [1]: 720 nM
ED50 [2]: 0.00015 mg/kg
ED50 [3]: > 0.003 mg/kg
Atrioventricular Block Appearance Ratio (Number of Animals Showing Appearance/Number of Animals Used) [4]: 1/6
Safety Coefficient ([5]; dog, in vivo): > 20
ED50 [9]: > 0.003 mg/kg

CCCCCCCCCCCCCCC#Cc1nc(N)c2ncn([C@@H]3O[C@H](CO)[C@@H](O)[C@H]3O)c2n1 [Compound 12, 2-hexadecynyladenosine]
IC50 [1]: > 3100 nM
ED50 [2]: > 0.0001 mg/kg
ED50 [3]: > 0.003 mg/kg
Average Survival Time, Potassium Cyanide Induced Anoxia Method ([8]; 30 mg/kg i.p., control (2) 41.8 (±1.9)): 76.7 (±11.7) sec.
Atrioventricular Block Appearance Ratio (Number of Animals Showing Appearance/Number of Animals Used) [4]: 0/6
LD50 [10]: ≥ 1000 mg/kg
lethal cases [11]: no lethal case was recognized
Safety Coefficient ([5]; dog, in vivo): 30
ED50 [9]: > 0.003 mg/kg
